From ChEMBL document CHEMBL4699559, “Discovery of CC-90011: A Potent and Selective Reversible Inhibitor of Lysine Specific Demethylase 1 (LSD1)” (J Med Chem, 2020)
One block for each compound: values may come before it. Activity calls are given as the source filed them. The calls are words filed in the database; no cut-off is given here.

Columns and labels:
[1] = AUC (0 to 6 hrs) in CD1 mouse at 10 mg/kg, po; assay type: ADME, organism-based; design: time < 6 hr, route oral, dose 10 mg/kg; details: in vivo
hERG (KCNH2) = hERG (KCNH2) (Homo sapiens, UniProt Q12809); assay: Inhibition of human ERG at 10 uM relative to control
Chain of hERG (KCNH2) (Q12809 whole entry): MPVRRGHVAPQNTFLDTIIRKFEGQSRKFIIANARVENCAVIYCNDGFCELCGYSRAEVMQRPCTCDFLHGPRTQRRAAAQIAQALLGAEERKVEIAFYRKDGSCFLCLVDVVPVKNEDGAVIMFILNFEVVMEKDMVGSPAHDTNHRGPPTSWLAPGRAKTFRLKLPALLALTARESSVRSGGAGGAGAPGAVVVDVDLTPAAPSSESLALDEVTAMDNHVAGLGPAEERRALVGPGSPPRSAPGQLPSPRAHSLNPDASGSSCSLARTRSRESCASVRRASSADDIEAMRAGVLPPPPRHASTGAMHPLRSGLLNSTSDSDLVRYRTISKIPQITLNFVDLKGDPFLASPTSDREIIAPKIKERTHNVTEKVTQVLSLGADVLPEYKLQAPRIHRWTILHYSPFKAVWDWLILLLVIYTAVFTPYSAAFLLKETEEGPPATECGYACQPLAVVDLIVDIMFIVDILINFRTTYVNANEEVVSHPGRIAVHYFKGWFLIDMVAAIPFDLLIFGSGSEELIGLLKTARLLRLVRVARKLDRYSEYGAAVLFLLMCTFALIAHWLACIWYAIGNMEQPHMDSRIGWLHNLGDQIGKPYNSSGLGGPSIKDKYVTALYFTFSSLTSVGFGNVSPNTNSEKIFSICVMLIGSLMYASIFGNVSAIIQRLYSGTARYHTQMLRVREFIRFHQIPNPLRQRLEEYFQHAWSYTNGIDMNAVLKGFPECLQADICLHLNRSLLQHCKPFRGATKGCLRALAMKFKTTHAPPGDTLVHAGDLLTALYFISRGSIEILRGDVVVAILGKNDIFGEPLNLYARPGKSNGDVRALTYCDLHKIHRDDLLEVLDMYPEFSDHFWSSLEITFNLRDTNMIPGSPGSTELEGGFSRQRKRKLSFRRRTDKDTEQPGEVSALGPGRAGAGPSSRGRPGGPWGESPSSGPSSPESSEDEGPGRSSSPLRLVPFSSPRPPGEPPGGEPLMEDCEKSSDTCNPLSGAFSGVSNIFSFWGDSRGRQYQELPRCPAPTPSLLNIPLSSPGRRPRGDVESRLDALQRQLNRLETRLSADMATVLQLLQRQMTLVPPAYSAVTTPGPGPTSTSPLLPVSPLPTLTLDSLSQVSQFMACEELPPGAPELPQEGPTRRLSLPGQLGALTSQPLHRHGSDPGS

[2] = Antitumor activity against human LXFS615 xenografted in Crl:CD1-Foxn1nu mouse patient-derived xenograft model assessed as inhibition of tumor growth at 5 mg/kg, po dosed daily for 30 days relative to control; assay type: functional; details: 720 h, time 30 day, read-out: TGI
[3] = Protein binding in mouse plasma; assay type: ADME, cell-free; details: read-out: PPB (converted)
[4] = target: T1, Amine oxidase [flavin-containing] B (Homo sapiens, UniProt P27338); assay: Inhibition of MAOB (unknown origin) at; details: dose <10 µM
T1 sequence (P27338 whole entry): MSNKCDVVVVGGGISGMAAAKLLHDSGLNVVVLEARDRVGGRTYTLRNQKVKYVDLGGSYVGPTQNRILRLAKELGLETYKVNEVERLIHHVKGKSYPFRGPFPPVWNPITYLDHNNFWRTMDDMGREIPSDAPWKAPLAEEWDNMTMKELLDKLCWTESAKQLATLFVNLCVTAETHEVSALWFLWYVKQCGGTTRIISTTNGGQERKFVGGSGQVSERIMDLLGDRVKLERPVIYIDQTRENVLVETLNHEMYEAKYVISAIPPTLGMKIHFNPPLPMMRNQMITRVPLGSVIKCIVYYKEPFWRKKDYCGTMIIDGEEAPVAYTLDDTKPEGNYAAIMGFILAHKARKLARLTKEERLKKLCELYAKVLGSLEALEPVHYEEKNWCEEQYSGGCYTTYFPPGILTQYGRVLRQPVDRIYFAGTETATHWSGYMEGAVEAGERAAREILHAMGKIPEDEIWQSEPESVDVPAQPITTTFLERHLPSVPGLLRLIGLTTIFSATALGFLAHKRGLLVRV

[5] = AUC (0 to 24 hrs) in CD1 mouse at 5 mg/kg, po; assay type: ADME, organism-based; design: time < 24 hr, route oral, dose 5 mg/kg; details: in vivo
NCI-H1417 [6] = assay: Antitumor activity against human NCI-H1417 cells xenografted in Crl:CD1-Foxn1nu mouse assessed as tumor growth regression level at 5 mg/kg, po QD for 65 days relative to control; assay type: functional; details: time 65 day
Mus musculus [7] = assay: Inhibition of GRP mRNA expression in Crl:CD1-Foxn1nu mouse xenografted with human NCI-H1417 cells at 2.5 mg/kg, po QD for 4 days and measured 24 hrs post last dose by qPCR analysis; assay type: functional, organism-based; details: time 5.0 day
[8] = Volume of distribution at steady state in CD1 mouse at 5 mg/kg, iv; assay type: ADME, organism-based; details: in vivo, read-out: Vdss
[9] = Oral bioavailability in CD1 mouse at 5 mg/kg; assay type: ADME, organism-based; details: in vivo
[10] = Toxicity in Crl:CD1-Foxn1nu mouse xenografted with human LXFS615 cells assessed as weight loss at 5 mg/kg, po dosed daily for 30 days relative to control; assay type: organism-based; details: in vivo, 720 h, time 30 day
[11] = Antitumor activity against human LU2514 xenografted in Crl:CD1-Foxn1nu mouse patient-derived xenograft model assessed as inhibition of tumor growth at 10 mg/kg, po QD for 28 days relative to control; assay type: functional; details: 672 h, time 28 day, read-out: TGI
[12] = Antitumor activity against human LU2514 xenografted in Crl:CD1-Foxn1nu mouse patient-derived xenograft model assessed as inhibition of tumor growth at 5 mg/kg, po QD for 28 days relative to control; assay type: functional; details: 672 h, time 28 day, read-out: TGI
[13] = Half life in CD1 mouse at 5 mg/kg, iv; assay type: ADME, organism-based; details: in vivo
Mus musculus [14] = assay: Induction of in-vivo cell differentiation in Crl:CD1-Foxn1nu mouse patient-derived xenograft model xenografted with human LU2514 assessed as increase in apoptotic bodies at 10 mg/kg, po QD for 28 days and measured 15 days post last dose by H and E staining based assay; assay type: functional, organism-based; details: time 43.0 day
IMR-90 = assay: Anti-proliferative activity in human IMR-90 cells incubated for 168 hrs by MTS assay; assay type: functional, cell-based; details: IMR-90, 168 h
[15] = Clearance in CD1 mouse at 5 mg/kg, iv; assay type: ADME, organism-based; details: in vivo
[16] = Cmax in CD1 mouse at 5 mg/kg, po; assay type: ADME, organism-based; design: route oral, dose 5 mg/kg; details: in vivo
Mus musculus [17] = assay: Inhibition of GRP mRNA expression in Crl:CD1-Foxn1nu mouse xenografted with human NCI-H1417 cells at 5 mg/kg, po QD for 4 days and measured 24 hrs post last dose by qPCR analysis; assay type: functional, organism-based; details: time 5.0 day
[18] = target: T2, Amine oxidase [flavin-containing] A (Homo sapiens, UniProt P21397); assay: Inhibition of MAOA (unknown origin) at; details: dose <10 µM
T2 sequence (P21397 whole entry): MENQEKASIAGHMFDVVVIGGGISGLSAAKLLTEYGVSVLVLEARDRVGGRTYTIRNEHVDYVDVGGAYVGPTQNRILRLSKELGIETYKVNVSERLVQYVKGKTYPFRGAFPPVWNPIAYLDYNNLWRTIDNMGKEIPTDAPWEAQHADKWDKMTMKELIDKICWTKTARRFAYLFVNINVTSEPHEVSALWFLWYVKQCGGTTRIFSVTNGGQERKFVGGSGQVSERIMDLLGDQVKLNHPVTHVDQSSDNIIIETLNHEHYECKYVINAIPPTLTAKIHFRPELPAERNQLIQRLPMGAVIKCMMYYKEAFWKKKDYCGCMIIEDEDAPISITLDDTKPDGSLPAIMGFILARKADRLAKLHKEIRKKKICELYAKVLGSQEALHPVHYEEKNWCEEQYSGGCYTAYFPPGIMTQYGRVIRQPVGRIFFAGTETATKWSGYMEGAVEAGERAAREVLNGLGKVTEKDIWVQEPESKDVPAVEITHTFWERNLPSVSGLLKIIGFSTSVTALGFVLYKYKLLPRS

Mus musculus [19] = assay: Induction of in-vivo cell differentiation in Crl:CD1-Foxn1nu mouse patient-derived xenograft model xenografted with human LU2514 assessed as reduction in nucleus to cytoplasm ratio at 10 mg/kg, po QD for 28 days and measured 15 days post last dose by H and E staining based assay; assay type: functional, organism-based; details: time 43.0 day
[20] = Toxicity in Crl:CD1-Foxn1nu mouse xenografted with human NCI-H1417 cells assessed as weight gain level at 2.5 to 5 mg/kg, po QD for 65 days relative to control; assay type: organism-based; details: in vivo, 1560 h, dose 2.5-5 mg/kg, time 65 day
Kasumi 1 = assay: Anti-proliferative activity in human Kasumi 1 cells incubated for 168 hrs by MTS assay; assay type: functional, cell-based; details: Kasumi 1, 168 h
NCI-H1417 [21] = assay: Antitumor activity against human NCI-H1417 cells xenografted in Crl:CD1-Foxn1nu mouse assessed as tumor growth regression level at 2.5 mg/kg, po QD for 65 days relative to control; assay type: functional; details: time 65 day
Mus musculus [22] = assay: Induction of in-vivo cell differentiation in Crl:CD1-Foxn1nu mouse patient-derived xenograft model xenografted with human LU2514 assessed as loosening of cellular structure at 10 mg/kg, po QD for 28 days and measured 15 days post last dose by H and E staining based assay; assay type: functional, organism-based; details: time 43.0 day
[23] = target: T3, Lysine-specific histone demethylase 2 (Homo sapiens) (UniProt Q8NB78); assay: Inhibition of LSD2 (unknown origin) at; details: dose microM <10
T3 sequence (whole entry): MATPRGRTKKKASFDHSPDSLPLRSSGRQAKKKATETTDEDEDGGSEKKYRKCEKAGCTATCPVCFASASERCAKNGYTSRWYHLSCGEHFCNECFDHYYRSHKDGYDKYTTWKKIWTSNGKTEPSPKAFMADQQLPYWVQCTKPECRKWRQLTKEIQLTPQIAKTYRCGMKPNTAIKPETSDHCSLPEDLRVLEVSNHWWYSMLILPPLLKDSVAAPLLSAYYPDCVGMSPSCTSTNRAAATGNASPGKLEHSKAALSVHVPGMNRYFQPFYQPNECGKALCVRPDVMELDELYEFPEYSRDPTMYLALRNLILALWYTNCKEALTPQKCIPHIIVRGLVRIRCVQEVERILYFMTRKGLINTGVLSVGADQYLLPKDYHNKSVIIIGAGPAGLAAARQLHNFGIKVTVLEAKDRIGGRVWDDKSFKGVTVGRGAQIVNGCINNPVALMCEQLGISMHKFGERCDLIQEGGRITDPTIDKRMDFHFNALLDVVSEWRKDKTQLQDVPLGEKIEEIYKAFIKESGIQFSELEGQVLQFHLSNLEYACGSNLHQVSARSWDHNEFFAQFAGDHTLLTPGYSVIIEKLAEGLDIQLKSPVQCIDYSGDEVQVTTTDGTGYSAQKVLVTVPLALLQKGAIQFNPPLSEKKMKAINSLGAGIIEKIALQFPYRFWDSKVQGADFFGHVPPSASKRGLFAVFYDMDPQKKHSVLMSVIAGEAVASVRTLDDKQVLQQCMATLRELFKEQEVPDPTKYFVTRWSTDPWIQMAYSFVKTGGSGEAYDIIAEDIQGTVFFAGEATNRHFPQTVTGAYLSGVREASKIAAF

AUC(0-t) at 6 h [1]: 3 µM·h
SMILES: COc1ccc(-c2c(-c3ccc(C#N)cc3)nc(N3CCC(N)CC3)n(C)c2=O)cc1F
inhibition at 10 µM (hERG (KCNH2)): 48%

AUC(0-t) at 6 h [1]: 6.1 µM·h
SMILES: COc1ccc(-c2c(-c3ccc(C#N)cc3)nc(N3CCC(N)CC3)n(C)c2=O)cc1
inhibition at 10 µM (hERG (KCNH2)): 67%

AUC(0-t) at 6 h [1]: 2.6 µM·h
fraction unbound [3]: 0.08
inhibition (INH) [4]: Not Active
AUC(0-t) at 24 h [5]: 1.8 µM·h
Vd [8]: 7.5 L/kg
bioavailability [9]: 32%
half-life [13]: 2 h
clearance [15]: 1.94 L/h/kg
Cmax [16]: 0.36 µM
inhibition (INH) [18]: Not Active
inhibition [23]: inactive
SMILES: COc1ccc(-c2c(-c3ccc(C#N)c(F)c3)nc(N3CCC(N)CC3)n(C)c2=O)cc1F.O=S(=O)(O)c1ccccc1 [PULRODEMSTAT BESILATE]
inhibition in vivo at 5 mg/kg [2]: 78%
Activity (NCI-H1417 [6]): 178%
inhibition (Mus musculus [7]): Active
Activity [10]: < 1%
inhibition in vivo at 10 mg/kg [11]: 56%
inhibition in vivo at 5 mg/kg [12]: 39%
Activity (Mus musculus [14]): Active
EC50 (IMR-90): > 10000 nM
inhibition (Mus musculus [17]): Active
Activity (Mus musculus [19]): Active
inhibition at 10 µM (hERG (KCNH2)): 59%
Activity [20]: <= 7%
EC50 (Kasumi 1): 2 nM
Activity (NCI-H1417 [21]): 159%
Activity (Mus musculus [22]): Active

Second part, the compound before the results:

SMILES: Cc1ccc(-c2c(-c3ccc(C#N)cc3)nc(N3CCC(N)CC3)n(C)c2=O)cc1
AUC(0-t) at 6 h [1]: 10.5 µM·h
inhibition at 10 µM (hERG (KCNH2)): 83%

SMILES: Cc1ccc(-c2c(-c3ccc(C#N)cc3)nc(N3CCC(N)CC3)c(=O)n2C)cc1
AUC(0-t) at 6 h [1]: 7.3 µM·h
inhibition at 10 µM (hERG (KCNH2)): 95%

SMILES: Cc1ccc(-c2cnc(N3CC[C@@H]4NCC[C@@H]4C3)nc2-c2ccc(C#N)cc2)cc1
AUC(0-t) at 6 h [1]: 14.5 µM·h
inhibition at 10 µM (hERG (KCNH2)): 95%

SMILES: Cc1ccc(-c2cnc(C[C@H]3CCNC3)nc2-c2ccc(C#N)cc2)cc1
AUC(0-t) at 6 h [1]: 1 µM·h
inhibition at 10 µM (hERG (KCNH2)): 91%
